This note sets out measurements from patent US20230338609A1, “MEDICAL DEVICES AND MATERIALS COMPRISING BIODEGRADABLE POLYESTERS” (AMICOAT AS, priority 2020, published 2023).

Assay [1] relates to Staphylococcus aureus, strain ATCC 25923.
Assay [2] has as its system Methicillin resistant Staphylococcus aureus (MRSA) strain ATCC 33591.
The test system of assay [3] is Methicillin resistant Staphylococcus epidermidis (MRSE) strain ATCC 27626.
A further assay deals with C. albicans. Particulars: Table 5.
The test system of another assay is S. pyogenes. The note with it: Table 5.
In another assay the test system is E. coli. Particulars: Table 5.
A further assay deals with P. aeruginosa. The note with it: Table 5.

Values after ≈ are worked out from the molar mass of the structure shown. Read-outs that look alike come from different tables or passages of the source. Residues, ends and D or L forms follow the SMILES beside them. *: point of attachment. NHPhenethyl = c1ccc(CCN*)cc1 Where only a bound is given, the exact number is not on record here.

Take `N=C(N)NCCC[C@H](NC(=O)[C@H](Cc1c[nH]c2ccccc12)NC(=O)[C@@H](N)CCCNC(=N)N)C(=O)NCCc1ccccc1` [Compound 6, reference compound] (H-Arg-Trp-Arg-NHPhenethyl; N-terminus assumed): the “MIC S. aureus” value in assay [1] (Staphylococcus aureus ATCC 25923) was 145 µM (≈ 89.9 µg/mL). Further, the “MIC MRSA” value in assay [2] (MRSA ATCC 33591) is 97 µM (≈ 60.1 µg/mL). For the same compound, the “MIC MRSE” value in assay [3] (MRSE ATCC 27626) was determined as 81 µM (≈ 50.2 µg/mL).

As for `CCCCNC(=O)[C@H](CCCNC(=N)N)NC(=O)[C@H](Cc1c(C(C)(C)C)[nH]c2c(C(C)(C)C)cc(C(C)(C)C)cc12)NC(=O)[C@@H](N)CCCNC(=N)N` [Compound 9], the “S. aureus (MIC)” value in assay [1] (ATCC 25923) came to 2 µg/mL. In assay [2] (ATCC 33591), the “MRSA (MIC)” value came out at 3 µg/mL. In addition, in assay [3] (ATCC 27626), the “MRSE (MIC)” value was below 2 µg/mL. Also, the “C. albicans (MIC)” value in the assay with C. albicans was 10 µg/mL. Further, the “S. pyogenes (MIC)” value in the assay on S. pyogenes is 2 µg/mL.

Regarding `CCCNC(=O)[C@H](CCCNC(=N)N)NC(=O)[C@H](Cc1c(C(C)(C)C)[nH]c2c(C(C)(C)C)cc(C(C)(C)C)cc12)NC(=O)[C@@H](N)CCCNC(=N)N` [Compound 10], the “S. aureus (MIC)” value in assay [1] (ATCC 25923) worked out at 2 µg/mL. Also, in assay [2] (ATCC 33591), the “MRSA (MIC)” value was 3 µg/mL. Further, the “MRSE (MIC)” value in assay [3] (ATCC 27626) is below 2 µg/mL. In the assay with C. albicans, the “C. albicans (MIC)” value came out at 10 µg/mL. Also, the “S. pyogenes (MIC)” value with S. pyogenes was found to be 2 µg/mL.

On to `CCCCCCCCCCCCCCCCNC(=O)[C@H](CCCNC(=N)N)NC(=O)[C@H](Cc1c(C(C)(C)C)[nH]c2c(C(C)(C)C)cc(C(C)(C)C)cc12)NC(=O)[C@@H](N)CCCNC(=N)N` [Compound 11], for which the “S. aureus (MIC)” value in assay [1] (Table 5, strain ATCC 25923) was 5 µg/mL. Further, the “MRSA (MIC)” value in assay [2] (Table 5, strain ATCC 33591) was 4 µg/mL. Further, the “MRSE (MIC)” value in assay [3] (Table 5, strain ATCC 27626) stood at 4 µg/mL. Besides, in the assay on C. albicans, the “C. albicans (MIC)” value is above 100 µg/mL. In the assay with S. pyogenes, the “S. pyogenes (MIC)” value came to 6 µg/mL. For the same compound, the “E. coli (MIC)” value in the assay on E. coli is above 100 µg/mL. In the assay on P. aeruginosa, the “P. aeruginosa (MIC)” value is above 100 µg/mL.

In the case of `CC(C)CNC(=O)[C@H](CCCNC(=N)N)NC(=O)[C@H](Cc1c(C(C)(C)C)[nH]c2c(C(C)(C)C)cc(C(C)(C)C)cc12)NC(=O)[C@@H](N)CCCNC(=N)N` [Compound 12], the “S. aureus (MIC)” value in assay [1] (ATCC 25923) is below 2 µg/mL. Besides, the “MRSA (MIC)” value in assay [2] (ATCC 33591) came out at 3 µg/mL. In addition, in assay [3] (ATCC 27626), the “MRSE (MIC)” value turned out to be 2 µg/mL. Also, in the assay on C. albicans, the “C. albicans (MIC)” value was 10 µg/mL. In addition, in the assay with S. pyogenes, the “S. pyogenes (MIC)” value is 2 µg/mL.

For `CC(C)(C)c1cc(C(C)(C)C)c2[nH]c(C(C)(C)C)c(C[C@H](NC(=O)[C@@H](N)CCCNC(=N)N)C(=O)N[C@@H](CCCNC(=N)N)C(=O)NC3CCCCC3)c2c1` [Compound 13], the “S. aureus (MIC)” value in assay [1] (ATCC 25923) is below 2 µg/mL. Also, the “MRSA (MIC)” value in assay [2] (ATCC 33591) is 2 µg/mL. In assay [3] (ATCC 27626), the “MRSE (MIC)” value is 2 µg/mL. Also, in the assay with C. albicans, the “C. albicans (MIC)” value came out at 10 µg/mL. Also, the “S. pyogenes (MIC)” value in the assay with S. pyogenes is below 2 µg/mL.

As for `CC(C)(C)c1cc(C(C)(C)C)c2[nH]c(C(C)(C)C)c(C[C@H](NC(=O)[C@@H](N)CCCNC(=N)N)C(=O)N[C@@H](CCCNC(=N)N)C(=O)NC3CCCC3)c2c1` [Compound 14], the “S. aureus (MIC)” value in assay [1] (ATCC 25923) is below 2 µg/mL. Besides, the “MRSA (MIC)” value in assay [2] (ATCC 33591) was above 15 µg/mL. Also, the “MRSE (MIC)” value in assay [3] (ATCC 27626) is below 2 µg/mL. Further, the “C. albicans (MIC)” value in the assay with C. albicans was 10 µg/mL. For the same compound, the “S. pyogenes (MIC)” value with S. pyogenes stood at 2 µg/mL.
